{"source": "paper PMC3117075", "about": "(Journal of medicinal chemistry, 2011)", "origin": "cited, not measured here", "biological_target": "BRCT(BRCA1) (Homo sapiens, UniProt P38398)", "sequence (P38398 1646-1859 limits assumed)": "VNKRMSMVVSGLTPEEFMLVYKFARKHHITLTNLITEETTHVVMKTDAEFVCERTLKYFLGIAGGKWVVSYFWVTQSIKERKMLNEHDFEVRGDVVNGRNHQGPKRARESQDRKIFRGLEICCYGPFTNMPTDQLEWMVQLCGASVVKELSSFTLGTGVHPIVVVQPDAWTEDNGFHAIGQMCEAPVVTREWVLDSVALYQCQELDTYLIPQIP", "settings": "previously reported value"}
{"substance": "ISRSTpSPTFNKQT", "values": [{"measurement": "ΔCp (change in heat capacity at constant pressure)", "value": "-340 ± 30", "unit": "cal mol-1 K-1"}]}
